From patent US20240099301A1, “Disinfecting and Sanitizing Composition, Method for Preparing the Composition and Use of Same” (SOCIEDAD QUÍMICA ECOLÓGICA SPA, priority 2021, published 2024)

How the values were obtained:
[1] = room temperature; cited from earlier work
[2] = Comparison of products: corrosivity (pH); type: physicochemical
[3] = Comparison of products: compatibility with detergents; type: physicochemical
[4] = Comparison of products: duration of disinfectant effectiveness
people [5] = assay: Comparison of products: handling hazards (adverse effects), harm to people; design: species or system human
[6] = Comparison of products: stability; type: physicochemical
[7] = Comparison of products: filmogenic properties; type: physicochemical
people [8] = assay: Comparison of products: application in the presence of people; design: species or system human

| Structure (SMILES) | concentration with bactericidal activity [1] [%] | concentration with bacteriostatic activity [1] [%] | Corrosivity: irritancy [2] | Corrosivity: pH [2] | Compatibility with detergents [3] | Duration of effectiveness [4] [days] | Handling hazards (adverse effects) (people [5]; contact with skin and eyes) | Handling hazards (adverse effects) (people [5]; exposure to high concentrations) | Stability [6] | Filmogenic properties [7] | Application in the presence of people (people [8]) |
| --- | --- | --- | --- | --- | --- | --- | --- | --- | --- | --- | --- |
| OO [hydrogen peroxide] | 6 | 3 | – | – | – | – | – | – | – | – | – |
| OCl [Sodium hypochlorite] | – | – | irritant | ~11 | Not compatible. Sodium hypochlorite | 1 | Liquid chlorine causes severe burns | cause nausea and vomiting. | Not stable, chlorine solutions | No | No and ventilation recommended |
